Test results taken from patent EP0008361A1, “Halogen-substituted thiophene derivatives and method for their preparation” (priority 1978, dated 1980).
Like-named read-outs stand apart in the source and are kept apart here.

Legend:
[1] = system: Stubenfliegen-Larven (Musca domestica); assay: Breeding test with housefly larvae on treated nutrient medium; type: in vivo; settings: development observed over one week; for mortality at 10 µg/mL / mortality at 25 µg/mL: Musca domestica, 168 h, read-out: Mortalitätsrate; for mortality at 10 µg/mL: Wirkstoffkonzentration 10 ppm; for mortality at 25 µg/mL: Wirkstoffkonzentration 25 ppm; for Mortalitätsrate: Wirkstoffkonzentration 50 ppm
Protocol: Zuchtversuch mit Stubenfliegen-Larven (Musca domestica)
50 g eines Nährbodens aus Bäckerhefe, Trockenmilch, Wasser und Agar werden in warmem Zustand gründlich mit der wäßrigen Wirkstoffaufbereitung gemischt.
Nach dem Erkalten belegt man den Nährboden mit ca. 0,1 ml Fliegeneiern und beobachtet deren Entwicklung über eine Woche.

Blattläuse (Aphis fabae) = settings: evaluated after 24 hours
[2] = system: Spinnmilben (Tetranychus telarius); assay: whole plant or invertebrate; settings: 144 h, read-out: Mortalitätsrate
[3] = system: Wurzelgallennemathoden (Meloidogyne incognita); assay: Action on root-knot nematodes, drench of tomato plants in infested compost soil; type: in vivo; settings: 30 ml drench, roots rated after 6 to 8 weeks
Protocol: Wirkung auf Wurzelgallennemathoden (Meloidogyne incognita)
Junge Tomatenpflanzen werden in je 500 g Komposterde gepflanzt, die stark mit Wurzelgallennematoden infiziert ist.
Nach 3 Tagen erfolgt die Behandlung mit der wäßrigen Wirkstoffaufbereitung durch Gießen von 30 ml Aufbereitung.
Nach 6 bis 8 Wochen bonitiert man die Wurzeln auf Gallenbildung.

[4] = system: Moskito-Larven (Aedes aegypti); assay: whole plant or invertebrate; settings: 24 h, read-out: Mortalitätsrate
[5] = system: Spinnmilben (Tetranychus telarius); settings: assessed after 6 days
[6] = system: Moskito-Larven (Aedes aegypti); settings: Wirkstoffkonzentration 1 ppm; 4th instar larvae, 20°C, after 24 hours
[7] = Wirkstoffkonzentration 0,05 (unit not given)

SMILES	mortality at 10 µg/mL [1] [%]	mortality at 25 µg/mL [1] [%]	Mortalitätsrate (Blattläuse (Aphis fabae); [7])	mortality at 0.02 % [2] [%]	mortality at 0.05 % [2] [%]	Gallenbildung ([3]; Wirkstoffkonzentration 0,1 %)	Mortalitätsrate [1]	Mortalitätsrate [6]	other results
CCOP(=O)(SCc1csc(Cl)c1Cl)SCC(C)C (stereo not drawn) [Wirkstoff I, O-Äthyl-S-isobutyl-S-(2,3-dichlor-thienyl-4-methyl)-dithiophosphat]	80	100	100%	100	100	–	–	–	Mortalitätsrate (Blattläuse (Aphis fabae); Wirkstoffkonzentration 0,02 (unit not given)): 90%
CCOP(=O)(SCc1csc(Cl)c1Cl)SC(C)CC (stereo not shown) [Wirkstoff III]	100	100	–	100	100	–	–	–	Gallenbildung ([3]; Wirkstoffkonzentration 0,05 %): keine Gallenbildung; mortality at 0.01 % [2]: 100%; mortality at 0.25 µg/mL [4]: 100%; mortality at 0.5 µg/mL [4]: 100%; mortality at 1 µg/mL [4]: 100%
CNC(=O)CSP(=S)(OC)OC [Wirkstoff V1, 0,0-Dimethyl-S-(N-methyl-carbamoylmethyl)-phosphordi-thioat]	–	–	–	–	–	unwirksam	–	–	–
CCOP(=S)(OCC)SCc1ccsc1 [Wirkstoff V2, 0,0-Diäthyl-S-(tienyl-4-methyl)-dithiophosphat, reference compound]	–	–	unwirksam	–	–	unwirksam	unwirksam	unwirksam	Mortalitätsrate ([5]; Wirkstoffkonzentration 0,05 %): unwirksam; mortality at 0.1 % [2]: 80%
CCOP(=S)(OCC)SCc1csc(Cl)c1Cl [Wirkstoff V3, 0,0-Diäthyl-S-(2,3-dichlor-thienyl-4-methyl)-dithiophosphat]	–	–	–	–	–	–	unwirksam	unwirksam	Mortalitätsrate ([5]; Wirkstoffkonzentration 0,1 %): unwirksam
